# Tests used:
# [1] = tested on: human breast adenocarcinoma cell line, MCF-7; assay: resazurin viability assay, 72 h (Table 1); type: cell-based; settings: MCF7, 72h incubation, 156 nM-100 μM
# Description: (§1) In our experiments three different cell lines were used. Cells were purchased from the American Type Culture Collection (ATCC, Manassas, Va., USA). The human breast adenocarcinoma cell line, MCF-7 cells were maintained in Dulbecco's Modified Eagle Medium/Nutrient Mixture F-12 (DMEM/F12) 10% fetal calf serum (FCS, Gibco) and mouse mammary carcinoma 4T1 and human promyelocytic leukemia, HL-60 cells were maintained in Roswell Park Memorial Institute 1640 medium (RPMI-1640) 10% FCS. Media were supplemented with 2 mM GlutaMAX, and 100 U/mL penicillin, 100 μg/mL streptomycin (Life Technologies, Carlsbad, Calif., USA). Cell cultures were maintained at 37° C. in a humidified incubator in an atmosphere of 5% CO2 (Sanyo, Japan).
# (§2) For viability assays cells were seeded in 96 well plates (MCF7 and 4T1: 6000, HL60: 120.000 cells/well) and incubated overnight. Compounds were dissolved in dimethyl sulfoxide (DMSO). Cells were treated with an increasing concentration of compounds having the general formula (I.) (156 nM-100 μM). Cell viability was determined after 72h incubation. Resazurin reagent (Sigma-Aldrich) was dissolved in PBS (pH 7.4) at 0.15 mg/ml concentration, sterile filtered (0.22 μm, Merck Millipore) and aliquoted at −20° C. Resazurin reagent (Sigma-Aldrich) was added at a final concentration of 25 μg/ml. After 2 hours incubation at 37° C. 5% CO2 fluorescence (530 nm excitation/580 nm emission) was recorded on a multimode microplate reader (Cytofluor4000, PerSeptive Biosytems). Viability was calculated with relation to untreated control cells and blank wells containing media without cells. IC50 values (50% inhibiting concentration) were calculated by GraphPad Prism® 5 (La Jolla, Calif., USA).
# [2] = tested on: human promyelocytic leukemia, HL-60 cells; assay: resazurin viability assay, 72 h (Table 1); type: cell-based; settings: 72h incubation, 156 nM-100 μM
# Description: as §1, §2
# [3] = tested on: mouse mammary carcinoma 4T1; assay: resazurin viability assay, 72 h (Table 1); type: cell-based; settings: 72h incubation, 156 nM-100 μM
# Description: as §1, §2
Structure (SMILES),melting point,IC50 [1],IC50 [2],IC50 [3]
"CC(C)(C)Nc1c(-c2ccccc2)[nH]c2c(C(N)=O)cnn12 [Example 1, 3-(Tert-butylamino)-2-phenyl-1H-imidazo[1,2-b]pyrazole-7-carboxamide]",246 to 248 °C,–,–,–
"CC(C)(C)CC(C)(C)Nc1c(-c2ccccc2)[nH]c2c(C(N)=O)cnn12 [Example 2, 2-Phenyl-3-((2,4,4-trimethylpentan-2-yl)amino)-1H-imidazo[1,2-b]pyrazole-7-carbox-amide]",154 to 156 °C,–,–,–
"COC(=O)CNc1c(-c2ccccc2)[nH]c2c(C(N)=O)cnn12 [Example 3, Methyl 2-((7-carbamoyl-2-phenyl-1H-imidazo[1,2-b]pyrazol-3-yl)amino)acetate]",209 to 210 °C,–,–,–
"NC(=O)c1cnn2c(NC3CCCCC3)c(-c3ccccc3)[nH]c12 [Example 4, 3-(Cyclohexylamino)-2-phenyl-1H-imidazo[1,2-b]pyrazole-7-carboxamide]",240 to 241 °C,–,–,–
"COc1ccc(Nc2c(-c3ccccc3)[nH]c3c(C(N)=O)cnn23)cc1 [Example 5, 3-((4-Methoxyphenyl)amino)-2-phenyl-1H-imidazo[1,2-b]pyrazole-7-carboxamide]",229 to 231 °C,–,–,–
"Cc1ccc(-c2[nH]c3c(C(N)=O)cnn3c2NC(C)(C)CC(C)(C)C)cc1 [Example 6, 2-(p-Tolyl)-3-((2,4,4-trimethylpentan-2-yl)amino)-1H-imidazo[1,2-b]pyrazole-7-carbox-amide]",218 to 219 °C,17 µM,12.6 µM,12.3 µM
"COc1ccc(-c2[nH]c3c(C(N)=O)cnn3c2NC(C)(C)CC(C)(C)C)cc1 [Example 7, 2-(4-Methoxyphenyl)-3-((2,4,4-trimethylpentan-2-yl)amino)-1H-imidazo[1,2-b]pyrazole-7-carboxamide]",124 to 125 °C,18.6 µM,19 µM,25.2 µM
"COc1cc(-c2[nH]c3c(C(N)=O)cnn3c2NC(C)(C)CC(C)(C)C)ccc1OC(C)=O [Example 8, 4-(7-Carbamoyl-3-((2,4,4-trimethylpentan-2-yl)amino)-1H-imidazo[1,2-b]pyrazol-2-yl)-2-methoxyphenyl acetate]",190 to 191 °C,40.6 µM,26.6 µM,34.1 µM
"COC(=O)CNc1c(-c2c(OC)cc(OC)cc2OC)[nH]c2c(C(N)=O)cnn12 [Example 9, Methyl 2-((7-carbamoyl-2-(2,4,6-trimethoxyphenyl)-1H-imidazo[1,2-b]pyrazol-3-yl)amino)acetate]",226 to 227 °C,–,–,–
"CC(C)(C)CC(C)(C)Nc1c(-c2ccc(F)cc2)[nH]c2c(C(N)=O)cnn12 [Example 10, 2-(4-Fluorophenyl)-3-((2,4,4-trimethylpentan-2-yl)amino)-1H-imidazo[1,2-b]pyrazole-7-carboxamide]",229 to 230 °C,> 50 µM,17.5 µM,> 50 µM
"COC(=O)CNc1c(-c2ccc(F)cc2)[nH]c2c(C(N)=O)cnn12 [Example 11, Methyl 2-((7-carbamoyl-2-(4-fluorophenyl)-1H-imidazo[1,2-b]pyrazol-3-yl)amino)acetate]",229 to 230 °C,> 50 µM,15.9 µM,> 50 µM
"CC(C)(C)CC(C)(C)Nc1c(-c2ccc(C(F)(F)F)cc2)[nH]c2c(C(N)=O)cnn12 [Example 12, 2-(4-(Trifluoromethyl)phenyl)-3-((2,4,4-trimethylpentan-2-yl)amino)-1H-imidazo[1,2-b]pyrazole-7-carboxamide]",192 to 193 °C,12.7 µM,13.2 µM,20.9 µM
"CC(C)(C)Nc1c(-c2ccc(F)c(F)c2)[nH]c2c(C(N)=O)cnn12 [Example 13, 3-(Tert-butylamino)-2-(3,4-difluorophenyl)-1H-imidazo[1,2-b]pyrazole-7-carboxamide]",256 to 258 °C,–,–,–
"CC(C)(C)CC(C)(C)Nc1c(-c2cccnc2)[nH]c2c(C(N)=O)cnn12 [Example 14, 2-(Pyridin-3-yl)-3-((2,4,4-trimethylpentan-2-yl)amino)-1H-imidazo[1,2-b]pyrazole-7-carboxamide]",226 to 228 °C,–,–,–
"C/C(=C\c1ccccc1)c1[nH]c2c(C(N)=O)cnn2c1NC(C)(C)C [Example 15, (E)-3-(Tert-butylamino)-2-(1-phenylprop-1-en-2-yl)-1H-imidazo[1,2-b]pyrazole-7-carbox-amide]",190 to 191 °C,> 50 µM,29.2 µM,> 50 µM
"CC(C)(C)CC(C)(C)Nc1c(C2CCCCC2)[nH]c2c(C(N)=O)cnn12 [Example 16, 2-Cyclohexyl-3-((2,4,4-trimethylpentan-2-yl)amino)-1H-imidazo[1,2-b]pyrazole-7-carbox-amide]",190 to 192 °C,11.1 µM,9.35 µM,12.3 µM
"CCCCCCCc1[nH]c2c(C(N)=O)cnn2c1NC(C)(C)C [Example 17, 3-(Tert-butylamino)-2-heptyl-1H-imidazo[1,2-b]pyrazole-7-carboxamide]",203 to 204 °C,–,–,–
"CC(C)(C)CC(C)(C)Nc1c(C(C)(C)C)[nH]c2c(C(=O)NC3CCCC3)cnn12 [Example 32, 2-(Tert-butyl)-N-cyclopentyl-3-((2,4,4-trimethylpentan-2-yl)amino)-1H-imidazo[1,2-b]pyrazole-7-carboxamide]",182 to 183 °C,–,–,–
"Cc1nn2c(NC(C)(C)CC(C)(C)C)c(C(C)(C)C)[nH]c2c1C(=O)Nc1ccc(F)cc1 [Example 74, 2-(Tert-butyl)-N-(4-fluorophenyl)-6-methyl-3-((2,4,4-trimethylpentan-2-yl)amino)-1H-imidazo[1,2-b]pyrazole-7-carboxamide]",179 °C,–,–,–

# Results, then the compound that gave them:
melting point,IC50 [1],IC50 [2],IC50 [3],Structure (SMILES)
177 to 178 °C,–,–,–,"CC(C)(C)CC(C)(C)Nc1c(C(C)(C)C)[nH]c2c(C(=O)NC(C)(C)C)cnn12 [Example 30, N,2-Di-tert-butyl-3-((2,4,4-trimethylpentan-2-yl)amino)-1H-imidazo[1,2-b]pyrazole-7-carboxamide]"
180 to 181 °C,–,–,–,"Cc1cc(C)cc(NC(=O)c2cnn3c(NC(C)(C)CC(C)(C)C)c(C(C)(C)C)[nH]c23)c1 [Example 41, 2-(Tert-butyl)-N-(3,5-dimethylphenyl)-3-((2,4,4-trimethylpentan-2-yl)amino)-1H-imidazo[1,2-b]pyrazole-7-carboxamide]"
155 to 156 °C,–,–,–,"CC(C)c1ccc(NC(=O)c2cnn3c(NC(C)(C)CC(C)(C)C)c(C(C)(C)C)[nH]c23)cc1 [Example 42, 2-(Tert-butyl)-N-(4-isopropylphenyl)-3-((2,4,4-trimethylpentan-2-yl)amino)-1H-imidazo[1,2-b]pyrazole-7-carboxamide]"
127 °C,–,–,–,"COc1ccc(NC(=O)c2cnn3c(NC(C)(C)CC(C)(C)C)c(C(C)(C)C)[nH]c23)c(OC)c1 [Example 44, 2-(Tert-butyl)-N-(2,4-dimethoxyphenyl)-3-((2,4,4-trimethylpentan-2-yl)amino)-1H-imidazo[1,2-b]pyrazole-7-carboxamide]"
106 °C,–,–,–,"CC(C)(C)CC(C)(C)Nc1c(C(C)(C)C)[nH]c2c(C(=O)Nc3ccccc3C(F)(F)F)cnn12 [Example 45, 2-(Tert-butyl)-N-(2-(trifluoromethyl)phenyl)-3-((2,4,4-trimethylpentan-2-yl)amino)-1H-imidazo[1,2-b]pyrazole-7-carboxamide]"
–,29.3 µM,3.05 µM,30.7 µM,"CC(C)(C)CC(C)(C)Nc1c(C(C)(C)C)[nH]c2c(C(=O)Nc3ccc(Cl)cc3)cnn12 [Example 51, 2-(Tert-butyl)-N-(4-chlorophenyl)-3-((2,4,4-trimethylpentan-2-yl)amino)-1H-imidazo[1,2-b]pyrazole-7-carboxamide]"
163 to 164 °C,–,–,–,"CC(C)(C)CC(C)(C)Nc1c(C(C)(C)C)[nH]c2c(C(=O)NCc3ccc(F)cc3)cnn12 [Example 71, 2-(Tert-butyl)-N-(4-fluorobenzyl)-3-((2,4,4-trimethylpentan-2-yl)amino)-1H-imidazo[1,2-b]pyrazole-7-carboxamide]"
140 °C,–,–,–,"CC(C)(C)CC(C)(C)Nc1c(C(C)(C)C)[nH]c2c(C(=O)Nc3ccc(F)cn3)cnn12 [Example 72, 2-(Tert-butyl)-N-(5-fluoropyridin-2-yl)-3-((2,4,4-trimethylpentan-2-yl)amino)-1H-imidazo[1,2-b]pyrazole-7-carboxamide]"
177 to 178 °C,–,–,–,"CC(C)(C)CC(C)(C)Nc1c(C(C)(C)C)[nH]c2c(C(=O)Nc3ccc(F)nc3)cnn12 [Example 73, 2-(Tert-butyl)-N-(6-fluoropyridin-3-yl)-3-((2,4,4-trimethylpentan-2-yl)amino)-1H-imidazo[1,2-b]pyrazole-7-carboxamide]"

# From patent US20220064167A1, “IMIDAZO-PYRAZOLE CARBOXAMIDE DERIVATIVES AS ANTICANCER AGENTS AND THE SYNTHESIS THEREOF” (AVIDIN KFT., priority 2018, published 2022)
